Data published in PubChem BioAssay (NCI).
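Dose response: 5 concentrations. Exposure: 48 h. Format: 96-well plates. Endpoint: linear interpolation; highest concentration if not reached. Here, GI50 denotes the concentration required for 50% inhibition of growth. At the TGI there is no net growth.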

What was measured:
Assay in all cases: NCI tumour cell line growth inhibition, 48 h
786-0 renal = test system: 786-0 renal
A498 renal = test system: A498 renal
ACHN renal = test system: ACHN renal
BT-549 breast = test system: BT-549 breast
CAKI-1 renal = test system: CAKI-1 renal
CCRF-CEM leukemia = test system: CCRF-CEM leukemia
COLO 205 colon = test system: COLO 205 colon
DU-145 prostate = test system: DU-145 prostate
EKVX NSCLC = test system: EKVX NSCLC
HCT-116 colon = test system: HCT-116 colon
HCT-15 colon = test system: HCT-15 colon
HL-60(TB) leukemia = test system: HL-60(TB) leukemia
HOP-62 NSCLC = test system: HOP-62 NSCLC
HS 578T breast = test system: HS 578T breast
HT29 colon = test system: HT29 colon
IGROV1 ovarian = test system: IGROV1 ovarian
K-562 leukemia = test system: K-562 leukemia
KM12 colon = test system: KM12 colon
LOX IMVI melanoma = test system: LOX IMVI melanoma
M14 melanoma = test system: M14 melanoma
MALME-3M melanoma = test system: MALME-3M melanoma
MCF7 breast = test system: MCF7 breast
MDA-MB-231 breast = test system: MDA-MB-231 breast
MDA-MB-435 = test system: MDA-MB-435
MOLT-4 leukemia = test system: MOLT-4 leukemia
NCI-H226 lung = test system: NCI-H226 lung
NCI-H23 lung = test system: NCI-H23 lung
NCI-H460 lung = test system: NCI-H460 lung
NCI/ADR-RES ovarian = test system: NCI/ADR-RES ovarian
OVCAR-3 ovarian = test system: OVCAR-3 ovarian
OVCAR-5 ovarian = test system: OVCAR-5 ovarian
OVCAR-8 ovarian = test system: OVCAR-8 ovarian
PC-3 prostate = test system: PC-3 prostate
RPMI-8226 leukemia = test system: RPMI-8226 leukemia
SF-268 CNS = test system: SF-268 CNS
SF-295 CNS = test system: SF-295 CNS
SF-539 CNS = test system: SF-539 CNS
SK-MEL-2 melanoma = test system: SK-MEL-2 melanoma
SK-MEL-28 melanoma = test system: SK-MEL-28 melanoma
SK-MEL-5 melanoma = test system: SK-MEL-5 melanoma
SK-OV-3 ovarian = test system: SK-OV-3 ovarian
SN12C renal = test system: SN12C renal
SNB-19 CNS = test system: SNB-19 CNS
SNB-75 CNS = test system: SNB-75 CNS
SR leukemia = test system: SR leukemia
SW-620 colon = test system: SW-620 colon
TK-10 renal = test system: TK-10 renal
UACC-257 melanoma = test system: UACC-257 melanoma
UACC-62 melanoma = test system: UACC-62 melanoma
A549 NSCLC = test system: A549 NSCLC
HCC-2998 colon = test system: HCC-2998 colon
NCI-H522 lung = test system: NCI-H522 lung
OVCAR-4 ovarian = test system: OVCAR-4 ovarian
RXF 393 renal = test system: RXF 393 renal
U251 CNS = test system: U251 CNS
UO-31 renal = test system: UO-31 renal

For COC1=CC(=O)N(C(=O)C2CSC(C(CO)NC(=O)c3csc(/C=N/O)n3)=N2)C1 (stereo unspecified), the TGI (786-0 renal) was over 100 µM, the TGI (A498 renal) was over 100 µM and the TGI (ACHN renal) was over 100 µM. It also gave a TGI (BT-549 breast) of over 100 µM, a TGI (CAKI-1 renal) of over 100 µM and a TGI (CCRF-CEM leukemia) of over 100 µM. For the same molecule, the TGI (COLO 205 colon) was over 100 µM, the TGI (DU-145 prostate) was over 100 µM and the TGI (EKVX NSCLC) was over 100 µM. For the same molecule, the TGI (HCT-116 colon) was over 100 µM, the TGI (HCT-15 colon) was over 100 µM and the TGI (HL-60(TB) leukemia) was over 100 µM. The TGI (HOP-62 NSCLC) was over 100 µM, the TGI (HS 578T breast) was over 100 µM and the TGI (HT29 colon) was over 100 µM. The TGI (IGROV1 ovarian) was over 100 µM, the TGI (K-562 leukemia) was over 100 µM and the TGI (KM12 colon) was over 100 µM. It also gave a TGI (LOX IMVI melanoma) of over 100 µM, a TGI (M14 melanoma) of over 100 µM and a TGI (MALME-3M melanoma) of over 100 µM. It also gave a TGI (MCF7 breast) of over 100 µM, a TGI (MDA-MB-231 breast) of over 100 µM and a TGI (MDA-MB-435) of over 100 µM. It also gave a TGI (MOLT-4 leukemia) of over 100 µM, a TGI (NCI-H226 lung) of over 100 µM and a TGI (NCI-H23 lung) of over 100 µM. For the same molecule, the TGI (NCI-H460 lung) was over 100 µM, the TGI (NCI/ADR-RES ovarian) was over 100 µM and the TGI (OVCAR-3 ovarian) was over 100 µM. The TGI (OVCAR-5 ovarian) was over 100 µM, the TGI (OVCAR-8 ovarian) was over 100 µM and the TGI (PC-3 prostate) was over 100 µM. It also gave a TGI (RPMI-8226 leukemia) of over 100 µM, a TGI (SF-268 CNS) of over 100 µM and a TGI (SF-295 CNS) of over 100 µM. It also gave a TGI (SF-539 CNS) of over 100 µM, a TGI (SK-MEL-2 melanoma) of over 100 µM and a TGI (SK-MEL-28 melanoma) of over 100 µM. The TGI (SK-MEL-5 melanoma) was over 100 µM, the TGI (SK-OV-3 ovarian) was over 100 µM and the TGI (SN12C renal) was over 100 µM. It also gave a TGI (SNB-19 CNS) of over 100 µM, a TGI (SNB-75 CNS) of 91 µM and a TGI (SR leukemia) of over 100 µM. The TGI (SW-620 colon) was over 100 µM, the TGI (TK-10 renal) was over 100 µM and the TGI (UACC-257 melanoma) was over 100 µM. For the same molecule, the TGI (UACC-62 melanoma) was over 100 µM.

O=C(c1ccco1)c1nc2ccc(Cl)cc2[n+]([O-])c1C(F)(F)F gave a GI50 (786-0 renal) of over 100 µM, a TGI (786-0 renal) of over 100 µM and a GI50 (A498 renal) of over 100 µM. The TGI (A498 renal) was over 100 µM, the GI50 (A549 NSCLC) was over 100 µM and the TGI (A549 NSCLC) was over 100 µM. It also gave a GI50 (ACHN renal) of over 100 µM, a TGI (ACHN renal) of over 100 µM and a GI50 (BT-549 breast) of over 100 µM. For the same molecule, the TGI (BT-549 breast) was over 100 µM, the GI50 (CAKI-1 renal) was 95.6 µM and the TGI (CAKI-1 renal) was over 100 µM. The GI50 (CCRF-CEM leukemia) was 39.4 µM, the TGI (CCRF-CEM leukemia) was over 100 µM and the GI50 (COLO 205 colon) was over 100 µM. It also gave a TGI (COLO 205 colon) of over 100 µM, a GI50 (DU-145 prostate) of over 100 µM and a TGI (DU-145 prostate) of over 100 µM. For the same molecule, the GI50 (EKVX NSCLC) was 96.2 µM, the TGI (EKVX NSCLC) was over 100 µM and the GI50 (HCC-2998 colon) was 88.4 µM. The TGI (HCC-2998 colon) was over 100 µM, the GI50 (HCT-116 colon) was over 100 µM and the TGI (HCT-116 colon) was over 100 µM. It also gave a GI50 (HCT-15 colon) of over 100 µM, a TGI (HCT-15 colon) of over 100 µM and a GI50 (HL-60(TB) leukemia) of over 100 µM. For the same molecule, the TGI (HL-60(TB) leukemia) was over 100 µM, the GI50 (HOP-62 NSCLC) was 91.3 µM and the TGI (HOP-62 NSCLC) was over 100 µM. The GI50 (HS 578T breast) was over 100 µM, the TGI (HS 578T breast) was over 100 µM and the GI50 (HT29 colon) was over 100 µM. For the same molecule, the TGI (HT29 colon) was over 100 µM, the GI50 (IGROV1 ovarian) was over 100 µM and the TGI (IGROV1 ovarian) was over 100 µM. The GI50 (K-562 leukemia) was over 100 µM, the TGI (K-562 leukemia) was over 100 µM and the GI50 (KM12 colon) was over 100 µM. For the same molecule, the TGI (KM12 colon) was over 100 µM, the GI50 (LOX IMVI melanoma) was over 100 µM and the TGI (LOX IMVI melanoma) was over 100 µM. It also gave a GI50 (M14 melanoma) of over 100 µM, a TGI (M14 melanoma) of over 100 µM and a GI50 (MALME-3M melanoma) of over 100 µM. It also gave a TGI (MALME-3M melanoma) of over 100 µM, a GI50 (MCF7 breast) of 30.4 µM and a TGI (MCF7 breast) of over 100 µM. For the same molecule, the GI50 (MDA-MB-231 breast) was 59.1 µM, the TGI (MDA-MB-231 breast) was over 100 µM and the GI50 (MDA-MB-435) was over 100 µM. The TGI (MDA-MB-435) was over 100 µM, the GI50 (MOLT-4 leukemia) was over 100 µM and the TGI (MOLT-4 leukemia) was over 100 µM. It also gave a GI50 (NCI-H226 lung) of over 100 µM, a TGI (NCI-H226 lung) of over 100 µM and a GI50 (NCI-H23 lung) of over 100 µM. For the same molecule, the TGI (NCI-H23 lung) was over 100 µM, the GI50 (NCI-H460 lung) was 91.4 µM and the TGI (NCI-H460 lung) was over 100 µM. For the same molecule, the GI50 (NCI-H522 lung) was over 100 µM, the TGI (NCI-H522 lung) was over 100 µM and the GI50 (NCI/ADR-RES ovarian) was over 100 µM. The TGI (NCI/ADR-RES ovarian) was over 100 µM, the GI50 (OVCAR-3 ovarian) was over 100 µM and the TGI (OVCAR-3 ovarian) was over 100 µM. It also gave a GI50 (OVCAR-4 ovarian) of over 100 µM, a TGI (OVCAR-4 ovarian) of over 100 µM and a GI50 (OVCAR-5 ovarian) of over 100 µM. The TGI (OVCAR-5 ovarian) was over 100 µM, the GI50 (OVCAR-8 ovarian) was 64.9 µM and the TGI (OVCAR-8 ovarian) was over 100 µM. For the same molecule, the GI50 (PC-3 prostate) was 37.1 µM, the TGI (PC-3 prostate) was over 100 µM and the GI50 (RPMI-8226 leukemia) was 31.1 µM. For the same molecule, the TGI (RPMI-8226 leukemia) was over 100 µM, the GI50 (RXF 393 renal) was 27.4 µM and the TGI (RXF 393 renal) was 62 µM. The GI50 (SF-268 CNS) was 50.1 µM, the TGI (SF-268 CNS) was over 100 µM and the GI50 (SF-295 CNS) was over 100 µM. For the same molecule, the TGI (SF-295 CNS) was over 100 µM, the GI50 (SF-539 CNS) was over 100 µM and the TGI (SF-539 CNS) was over 100 µM. It also gave a GI50 (SK-MEL-2 melanoma) of over 100 µM, a TGI (SK-MEL-2 melanoma) of over 100 µM and a GI50 (SK-MEL-28 melanoma) of over 100 µM. For the same molecule, the TGI (SK-MEL-28 melanoma) was over 100 µM, the GI50 (SK-MEL-5 melanoma) was 90.3 µM and the TGI (SK-MEL-5 melanoma) was over 100 µM. The GI50 (SK-OV-3 ovarian) was over 100 µM, the TGI (SK-OV-3 ovarian) was over 100 µM and the GI50 (SN12C renal) was over 100 µM. It also gave a TGI (SN12C renal) of over 100 µM, a GI50 (SNB-19 CNS) of 72.6 µM and a TGI (SNB-19 CNS) of over 100 µM. It also gave a GI50 (SNB-75 CNS) of 52.8 µM, a TGI (SNB-75 CNS) of over 100 µM and a GI50 (SR leukemia) of 66.3 µM. For the same molecule, the TGI (SR leukemia) was over 100 µM, the GI50 (SW-620 colon) was over 100 µM and the TGI (SW-620 colon) was over 100 µM. For the same molecule, the GI50 (TK-10 renal) was 62.7 µM, the TGI (TK-10 renal) was over 100 µM and the GI50 (U251 CNS) was 69.8 µM. The TGI (U251 CNS) was over 100 µM, the GI50 (UACC-257 melanoma) was over 100 µM and the TGI (UACC-257 melanoma) was over 100 µM. The GI50 (UACC-62 melanoma) was over 100 µM, the TGI (UACC-62 melanoma) was over 100 µM and the GI50 (UO-31 renal) was over 100 µM. It also gave a TGI (UO-31 renal) of over 100 µM.
